pIC50: −log10 of the molar value.
How the values were obtained:
L-1210 Leukemia = experiment: tumor cell growth in culture, L-1210 Leukemia; format: cell-based; settings: Mus musculus, L1210, testing at Roswell Park Memorial Institute
Source text: (§1) on Tumor Cell Growth in Culture
(§2) ^a Testing performed at Roswell Park Memorial Institute. See proposal
(§3) for methodology and references.

B-16 melanoma = experiment: tumor cell growth in culture, B-16 melanoma; format: cell-based; settings: Mus musculus, B16, testing at Roswell Park Memorial Institute
Source text: as §1, §2, §3

Lewis lung carcinoma = experiment: tumor cell growth in culture, Lewis lung carcinoma; format: cell-based; settings: testing at Roswell Park Memorial Institute
Source text: as §1, §2, §3

murine leukemia = murine leukemia model, ascites cells implanted i.p. in mice (Table I); format: in vivo, murine (CFD1+ mice); settings: for Effect MST % T/C: >125 considered significant; for MST (median survival time): control 6.5
Source text: Tumor Inoculum: 10^6 ascites cells implanted i.p.
Evaluation: MST = median survival time
Effect: % T/C = (MST treated/MST control) × 100.

[1] = test system: TTP formation in HeLa cells; experiment: inhibition of TTP formation in HeLa cells; format: cell-based; settings: Homo sapiens, 0.5 h, 30 min
Procedure: (§4) Effects of Inhibitors on Synthesis of DNA and TTP in HeLa Cells
^b HeLa cells were suspended for 30 min. in 2 ml. of minimal essentia
media containing 25 uCi of ^3 H--thymidine. Cells were lysed, carrier
nucleotides added and ^3 H--TTP isolated by thin layer chromatography

[2] = test system: DLD-1 human colon carcinoma; experiment: tumor cell growth in culture, DLD-1 human colon carcinoma; format: cell-based; settings: testing at Brown University
Source text: as §1
^b Testing performed at Brown University. Cell lines and methodology

[3] = test system: DNA synthesis in HeLa cells; experiment: inhibition of DNA synthesis in HeLa cells; format: cell-based; settings: Homo sapiens, 1 h, 60 min
Procedure: as §4
^a Measured, over a period of 60 min., as described in the Legend to […]

DNA synthesis = experiment: cytotoxicity and effect on DNA, RNA and protein synthesis (Fig. I); format: cell-based
[4] = 2 mg/kg/inj IP, schedule qd 1 5
[5] = 4 mg/kg/inj IP, schedule qd 1 5
[6] = 8 mg/kg/inj IP, schedule qd 1 5
[7] = 16 mg/kg/inj IP, schedule qd 1 5

Structure (SMILES): Cc1cn([C@H]2C[C@H](O)[C@@H](CO)O2)c(=O)n(C=CC=O)c1=O [XX-336, 3-(thymidin-3-yl)-prop-2-enal]
- pIC50 (L-1210 Leukemia): 5.80
- pIC50 (B-16 melanoma): 5.38
- pIC50 (Lewis lung carcinoma): 5.23
- Effect MST % T/C (murine leukemia; [4]): 123%
- MST (median survival time) (murine leukemia; [4]): 8.0 days
- Effect MST % T/C (murine leukemia; [5]): 123%
- MST (median survival time) (murine leukemia; [5]): 8.0 days
- Effect MST % T/C (murine leukemia; 8 mg/kg/inj IP, schedule d.1): 154%
- MST (median survival time) (murine leukemia; 8 mg/kg/inj IP, schedule d.1): 10.0 days
- Effect MST % T/C (murine leukemia; [6]): 146%
- MST (median survival time) (murine leukemia; [6]): 9.5 days
- Effect MST % T/C (murine leukemia; 16 mg/kg/inj IP, schedule d.1): 131%
- MST (median survival time) (murine leukemia; 16 mg/kg/inj IP, schedule d.1): 8.5 days
- Effect MST % T/C (murine leukemia; [7]): 146%
- MST (median survival time) (murine leukemia; [7]): 9.5 days
- Effect MST % T/C (murine leukemia; 32 mg/kg/inj IP, schedule d.1): 123%
- MST (median survival time) (murine leukemia; 32 mg/kg/inj IP, schedule d.1): 8.0 days
- inhibition at 0.1 µM ([1]; 0.1 μM): 6%
- inhibition at 0.3 µM ([1]; 0.3 μM): 50%
- inhibition at 1 µM ([1]; 1.0 μM): 75%
- inhibition at 2 µM ([1]; 2.0 μM): 85%
- inhibition at 20 µM ([1]; 20.0 μM): 95%
- pIC50 [2]: 5.30
- inhibition at 0.1 µM ([3]; 0.1 μM): 6%
- inhibition at 0.3 µM ([3]; 0.3 μM): 38%
- inhibition at 1 µM ([3]; 1.0 μM): 70%
- inhibition at 2 µM ([3]; 2.0 μM): 88%
- inhibition at 20 µM ([3]; 20.0 μM): 100%
- cytotoxicity associated with inhibition of DNA synthesis (DNA synthesis): associated dominantly with the inhibition of DNA synthesis
